Results as given in article PMC9643456, “Matching amino acids membrane preference profile to improve activity of antimicrobial peptides” (Communications Biology, 2022).
Ends that are not written are not given here.

Experiments:
human red blood cells = test: Hemolytic activity; type: cell-based; settings: red cells of human, 18 h
Procedure, shortened: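 Haemolysis was read as A540 of cleared supernatants after 18 h at 37 °C, with 0% and 100% lysis set by peptide-free PBS and 1% Triton X-100 and melittin as positive control. Human RBCs were at 4% final, peptide serially diluted 100–0.78 μM; three replicates.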

[1] = Maximum soluble concentration / turbidity; type: physicochemical; settings: for solubility: distilled water; for Maximum soluble concentration in PBS: lyophilized peptide reconstructed in PBS at 200-6.25 μM, visible turbidity checked every 12 h for 5 days, at least twice
Protocol: Supplementary Methods Bacteria preparation, Antimicrobial peptides preparation, Minimal-inhibitory-concentration measurements, Hemolysis-activity measurements, Tryptophan fluorescence measurements, Isothermal titration calorimetry measurements, Bacteria membrane ion permeation measurements, Outer-inner membrane permeation, Field-emission scanning electron microscopy and Antimicrobial kinetics were performed as described in Materials and Methods. Liposome (LUV) preparation. Bacterial-membrane-mimic DMPC/DMPG unilamellar vesicles (LUV) and mammalian- membrane-mimic PC/cholesterol vesicles with 100-nm diameters were prepared by extrusion. LiposoFast Liposome Factory Basic unit with stabilizer (Avestin, Ottawa, Canada) was used to extrude liposomes 50 times through a polycarbonate membrane filter (pore diameter, 100 nm; filter diameter, 0.75 inches) (Avestin). […] rac-(1-glycerol)) (sodium salt) (DMPG) (Avanti, Alabama, USA); 1,2-Dimyristoyl-sn-glycero-3-phosphocholine (DMPC) (Avanti); and cholesterol (Sigma, Darmstadt, Germany) were used. For circular dichroism, isothermal titration calorimetry, tryptophan fluorescence, and dynamic light scattering experiments, liposomes were reconstructed and resuspendedwith phosphate-buffered saline (PBS; Welgene Inc, Gyeongsangbuk-do, Korea). For calcein-permeation tests, liposomes were reconstructed with calcein solutions (80 mM, 40 mM, 30 mM, 20 mM, and 10 mM) (Sigma, Darmstadt, Germany), purified with Sephadex-G50 columns (Pharmacia biotech, Stockholm, Sweden), and resuspended with PBS. Maximum-soluble -concentration measurements. […] turbidity with PBS. The lowest concentration of peptide without visible turbidity was determined to be the maximu m soluble concentration. Each experiment was performed at least twice. Circular dichroism (CD) spectrum. DMPC/PG -liposome, PC/cholesterol -liposome, and peptide stock solutions were diluted in PBS. For circular dichroism, PBS with neither liposome nor peptides was also prepared. Liposomes and peptides were mixed to […] Samples were transferred into type J/1 cuvettes (Jasco, Tokyo, Japan). Cuvettes were placed into the J -815 circular -dichroism spectrometer (Jasco, Tokyo, Japan). Measurement parameters were as follows: wavelength, 190 -260 nm; data pitch, 0.2 nm; bandwidth, 1.00 nm; […] Each experiment was performed in triplicate. Data below 197 nm was not analyzed because o f experimental difficulties in obtaining those spectra. Each experiment was performed at least twice. Artificial membrane calcein permeation measurements. Calcein fluorescence was used to measure peptide -induced liposome permeation. Calcein solutions (10 mM, 20 mM, or 60 mM) containing PC/PG liposomes and peptides were diluted in PBS ( ×1, ×2, ×3, ×8). […] Liposome solutions (180 μl) were transferred to wells of black, clear -bottomed 96 -well plates (Costar, New York, USA). Peptide […] Liposome-containing plates and peptide -containing plates were inserted into a Flexstation 3 Multi -Mode Microplate Reader (Molecular Devices, California, USA). Peptide solutions (20 μl) were transferred and mixed with liposome solution automatical ly after 30 sec. […] Measurement parameters were as follows: excitation, 490 nm; emission, 520 nm; temperature, 37 °C. […] was transferred and mixed with the liposome -peptide solu tions automatically after 300 sec to acquire fluorescence at maximum leakage. […] Fluorescence measured between 0 -300 sec after addition of 0 μg/ml peptide was considered the baseline. Each experiment was performed at least twice. Dynamic light scattering (DLS) measurements. Dynamic light scattering was used to measure peptide -induced liposome volume changes. PC/PG -liposome stock solutions and peptides were resuspended in PBS. Liposomes and peptides were mixed to […]

MDR A. baumannii = test: microbe, parasite or virus in culture; settings: for MIC in 0.2% albumin and 0.01% AcOH added CLSI standard condition, MDR A. baumannii: CAMHB plus 0.2% bovine serum albumin and 0.01% acetic acid, values marked * in Table 2; for Minimum inhibitory concentrations, MDR A. baumannii: CLSI broth microdilution, CAMHB with 50 mg/L Ca2+, 10 mg/L Mg2+, 5 × 10^5 CFU/ml, 18 h 37 °C, triplicate, strain ATCC BAA-1605
Procedure, shortened: (§1)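 Broth microdilution per CLSI in cation-adjusted Mueller–Hinton broth with added calcium (50 mg/L) and magnesium (10 mg/L); mid-log bacteria at a final 5 × 10^5 CFU/ml were incubated with peptide for 18 h at 37 °C. MIC was the lowest concentration without visible turbidity, in triplicate.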

MDR E. faecalis = test: microbe, parasite or virus in culture; settings: for MIC in 0.2% albumin and 0.01% AcOH added CLSI standard condition, MDR E. faecalis: CAMHB plus 0.2% bovine serum albumin and 0.01% acetic acid, values marked * in Table 2; for Minimum inhibitory concentrations, MDR E. faecalis: CLSI broth microdilution, CAMHB with 50 mg/L Ca2+, 10 mg/L Mg2+, 5 × 10^5 CFU/ml, 18 h 37 °C, triplicate, strain ATCC 51575
Procedure, shortened: as §1

MDR P. aeruginosa = test: microbe, parasite or virus in culture; settings: for MIC in 0.2% albumin and 0.01% AcOH added CLSI standard condition, MDR P. aeruginosa: CAMHB plus 0.2% bovine serum albumin and 0.01% acetic acid, values marked * in Table 2; for Minimum inhibitory concentrations, MDR P. aeruginosa: CLSI broth microdilution, CAMHB with 50 mg/L Ca2+, 10 mg/L Mg2+, 5 × 10^5 CFU/ml, 18 h 37 °C, no visible turbidity, triplicate, strain CCARM 2180
Procedure, shortened: as §1

MDR S. aureus = test: microbe, parasite or virus in culture; settings: for MIC in 0.2% albumin and 0.01% AcOH added CLSI standard condition, MDR S. aureus: CAMHB plus 0.2% bovine serum albumin and 0.01% acetic acid, values marked * in Table 2; for Minimum inhibitory concentrations, MDR S. aureus: CLSI broth microdilution, CAMHB with 50 mg/L Ca2+, 10 mg/L Mg2+, 5 × 10^5 CFU/ml, 18 h 37 °C, triplicate, strain KCCM 40510
Procedure, shortened: as §1

Molecule	Hemolysis percent, 25 μM (human red blood cells)	Hemolysis percent, 50 μM (human red blood cells)	Hemolysis percent, 100 μM (human red blood cells)	solubility [1]	MIC in 0.2% albumin and 0.01% AcOH added CLSI standard condition, MDR A. baumannii (MDR A. baumannii)	Minimum inhibitory concentrations, MDR A. baumannii (MDR A. baumannii)	MIC in 0.2% albumin and 0.01% AcOH added CLSI standard condition, MDR E. faecalis (MDR E. faecalis)	Minimum inhibitory concentrations, MDR E. faecalis (MDR E. faecalis)	MIC in 0.2% albumin and 0.01% AcOH added CLSI standard condition, MDR P. aeruginosa (MDR P. aeruginosa)	Minimum inhibitory concentrations, MDR P. aeruginosa (MDR P. aeruginosa)	MIC in 0.2% albumin and 0.01% AcOH added CLSI standard condition, MDR S. aureus (MDR S. aureus)	Minimum inhibitory concentrations, MDR S. aureus (MDR S. aureus)	Maximum soluble concentration in PBS [1]	MIC at TM potential condition, S. aureus KCCM 40510 (MDR S. aureus; bacteria OD 0.1 (5 x 10^7 cfu/ml), CAMHB, 1% DMSO)
CC(C)C[C@H](NC(=O)[C@H](CCCNC(=N)N)NC(=O)CNC(=O)CNC(=O)[C@@H](N)CCCNC(=N)N)C(=O)N[C@H]1CSSC[C@@H](C(=O)N[C@H](C(=O)NCC(=O)N[C@@H](CCCNC(=N)N)C(N)=O)C(C)C)NC(=O)[C@H](C(C)C)NC(=O)[C@@H]2CSSC[C@H](NC(=O)[C@H](Cc3ccc(O)cc3)NC1=O)C(=O)N[C@@H](CCCNC(=N)N)C(=O)N[C@@H](CCCNC(=N)N)C(=O)N[C@@H](CCCNC(=N)N)C(=O)N[C@@H](Cc1ccccc1)C(=O)N2 [Protegrin-1, reference compound]	47.83 ±6.23%	56.75 ±6.02%	71.66 ±12.24%	< 500 µM	–	–	–	–	–	–	–	–	–	–
GVLVLFRRR-NH2 [Ptg C-ter 1]	0.40 ±0.10%	0.99 ±0.26%	1.17 ±0.07%	–	> 20 µM	> 20 µM	> 20 µM	> 20 µM	> 20 µM	> 20 µM	> 20 µM	> 20 µM	100 µM	–
GVLVWFRRR-NH2 [Ptg C-ter 2]	0.52 ±0.05%	1.14 ±0.02%	1.80 ±0.07%	< 500 µM	> 20 µM	> 20 µM	> 20 µM	> 20 µM	> 20 µM	> 20 µM	> 20 µM	> 20 µM	100 µM	–
GVWVLFRRR-NH2 [Ptg C-ter 3]	0.44 ±0.10%	0.80 ±0.09%	1.32 ±0.09%	< 500 µM	> 20 µM	> 20 µM	> 20 µM	> 20 µM	> 20 µM	> 20 µM	> 20 µM	> 20 µM	100 µM	–
LLLLLWRRR-NH2 [AcWL-2]	14.39 ±0.70%	15.13 ± 2.05%	27.97 ±2.79%	–	20 µM	> 20 µM	10 µM	–	> 20 µM	> 20 µM	10 µM	–	50 µM	–
RWLRWWIRV-NH2 [HLWCopW29-1]	1.20 ±0.14%	1.35 ±0.11%	16.39 ±2.19%	–	1.25 µM	2.5 µM	10 µM	–	20 µM	–	10 µM	–	> 200 µM	–
WLRRWWIRV-NH2 [HLWCopW29-2]	1.87 ±0.12%	4.13 ±0.28%	19.60 ±0.50%	–	2.5 µM	5 µM	10 µM	–	> 20 µM	> 20 µM	10 µM	–	> 200 µM	> 20 µM
WLVWIGRRR-NH2 [Hybrid-2]	0.66 ±0.07%	1.21 ±0.01%	2.88 ±1.49%	–	10 µM	–	> 20 µM	> 20 µM	> 20 µM	> 20 µM	> 20 µM	> 20 µM	> 200 µM	–
